Experimental data: PubChem BioAssay (NCI)
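1) Cells in 96-well plates. 2) Compound, 48 h, 5 concentrations. 3) Linear interpolation between surrounding doses. 4) Unreached endpoint = highest concentration. TGI: concentration producing complete growth inhibition.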

Columns and labels:
Assay in all cases: NCI tumour cell line growth inhibition, 48 h
[1] = system: K-562 leukemia
[2] = system: EKVX NSCLC
[3] = system: HT29 colon
[4] = system: NCI-H23 lung
[5] = system: UO-31 renal
[6] = system: COLO 205 colon
[7] = system: 786-0 renal
[8] = system: SF-295 CNS
[9] = system: KM12 colon
[10] = system: U251 CNS
[11] = system: NCI-H460 lung
[12] = system: M14 melanoma
[13] = system: NCI-H226 lung
[14] = system: CCRF-CEM leukemia
[15] = system: HCC-2998 colon
[16] = system: HOP-62 NSCLC
[17] = system: SF-539 CNS
[18] = system: MALME-3M melanoma
[19] = system: KM20L2 colon
[20] = system: SNB-78 CNS
[21] = system: LXFL 529 NSCLC
[22] = system: A549 NSCLC
[23] = system: RPMI-8226 leukemia
[24] = system: UACC-257 melanoma
[25] = system: DLD-1 colon
[26] = system: SK-OV-3 ovarian
[27] = system: OVCAR-8 ovarian
[28] = system: HL-60(TB) leukemia
[29] = system: ACHN renal
[30] = system: SNB-75 CNS
[31] = system: LOX IMVI melanoma
[32] = system: UACC-62 melanoma
[33] = system: M19-MEL melanoma
[34] = system: SF-268 CNS
[35] = system: SN12C renal
[36] = system: IGROV1 ovarian
[37] = system: DMS 273 small cell lung
[38] = system: MOLT-4 leukemia
[39] = system: SR leukemia
[40] = system: HCT-15 colon
[41] = system: SK-MEL-28 melanoma
[42] = system: OVCAR-3 ovarian
[43] = system: RXF 393 renal
[44] = system: NCI-H522 lung
[45] = system: SW-620 colon
[46] = system: SNB-19 CNS
[47] = system: TK-10 renal
[48] = system: OVCAR-4 ovarian
[49] = system: HOP-92 NSCLC
[50] = system: HS 578T breast
[51] = system: PC-3 prostate
[52] = system: SK-MEL-2 melanoma
[53] = system: A498 renal
[54] = system: MDA-MB-231 breast
[55] = system: MDA-N
[56] = system: BT-549 breast
[57] = system: HCT-116 colon
[58] = system: NCI/ADR-RES ovarian
[59] = system: MCF7 breast
[60] = system: MDA-MB-435
[61] = system: OVCAR-5 ovarian
[62] = system: SK-MEL-5 melanoma
[63] = system: DU-145 prostate
[64] = system: T-47D breast
[65] = system: CAKI-1 renal
[66] = system: DMS 114 small cell lung
[67] = system: HOP-18 NSCLC

In the case of CC(=O)OC1[C@H]2c3cc4c(cc3CN3CCC(=C[C@@H]1O)C23)OCO4 (some centres undefined), the TGI [1] is reported as over 100 µM, the TGI [2] is reported as over 100 µM and the TGI [3] is reported as over 100 µM. For the same compound, the TGI [4] was over 100 µM, the TGI [5] was over 100 µM and the TGI [6] was over 100 µM. For the same compound, the TGI [7] was over 100 µM, the TGI [8] was over 100 µM and the TGI [9] was over 100 µM. For the same compound, the TGI [10] was over 100 µM, the TGI [11] was over 100 µM and the TGI [12] was over 100 µM. For the same compound, the TGI [13] was over 100 µM, the TGI [14] was over 100 µM and the TGI [15] was over 100 µM. The TGI [16] was over 100 µM, the TGI [17] was over 100 µM and the TGI [18] was over 100 µM. The TGI [19] was over 100 µM, the TGI [20] was over 100 µM and the TGI [21] was over 100 µM. For the same compound, the TGI [22] was over 100 µM, the TGI [23] was over 100 µM and the TGI [24] was over 100 µM. It also gave a TGI [25] of over 100 µM, a TGI [26] of over 100 µM and a TGI [27] of over 100 µM. For the same compound, the TGI [28] was over 100 µM, the TGI [29] was over 100 µM and the TGI [30] was over 100 µM. It also gave a TGI [31] of over 100 µM, a TGI [32] of over 100 µM and a TGI [33] of over 100 µM. It also gave a TGI [34] of over 100 µM, a TGI [35] of over 100 µM and a TGI [36] of over 100 µM. The TGI [37] was over 100 µM, the TGI [38] was over 100 µM and the TGI [39] was over 100 µM. The TGI [40] was over 100 µM, the TGI [41] was over 100 µM and the TGI [42] was over 100 µM. For the same compound, the TGI [43] was over 100 µM, the TGI [44] was over 100 µM and the TGI [45] was over 100 µM. It also gave a TGI [46] of over 100 µM and a TGI [47] of over 100 µM.

With CSc1cc(N)ccc1N=Nc1ccc(S(N)(=O)=O)cc1 the TGI [1] was over 100 µM, the TGI [2] was over 100 µM and the TGI [3] was over 100 µM. The TGI [48] was over 100 µM, the TGI [49] was 68.2 µM and the TGI [4] was over 100 µM. It also gave a TGI [5] of 56.1 µM, a TGI [6] of 71.3 µM and a TGI [7] of 76.8 µM. It also gave a TGI [50] of 73.9 µM, a TGI [51] of over 100 µM and a TGI [52] of 62.3 µM. For the same compound, the TGI [8] was 56.6 µM, the TGI [9] was 92.2 µM and the TGI [53] was over 100 µM. For the same compound, the TGI [10] was over 100 µM, the TGI [11] was 71.6 µM and the TGI [54] was 57.9 µM. For the same compound, the TGI [12] was over 100 µM, the TGI [55] was over 100 µM and the TGI [56] was 36.4 µM. It also gave a TGI [13] of 50.4 µM, a TGI [14] of 84.5 µM and a TGI [15] of over 100 µM. It also gave a TGI [16] of 79 µM, a TGI [17] of 93.7 µM and a TGI [57] of over 100 µM. It also gave a TGI [18] of 84.4 µM, a TGI [58] of 91.2 µM and a TGI [59] of over 100 µM. For the same compound, the TGI [60] was 97.4 µM, the TGI [22] was 71.2 µM and the TGI [61] was over 100 µM. For the same compound, the TGI [23] was 38.4 µM, the TGI [24] was over 100 µM and the TGI [62] was 30.6 µM. It also gave a TGI [26] of over 100 µM, a TGI [27] of 53.6 µM and a TGI [28] of 82.8 µM. For the same compound, the TGI [29] was 93 µM, the TGI [30] was 59.8 µM and the TGI [63] was over 100 µM. It also gave a TGI [31] of over 100 µM, a TGI [32] of 32 µM and a TGI [34] of over 100 µM. It also gave a TGI [35] of over 100 µM, a TGI [36] of 72.3 µM and a TGI [38] of over 100 µM. For the same compound, the TGI [39] was over 100 µM, the TGI [40] was 62.9 µM and the TGI [41] was over 100 µM. The TGI [42] was 68.5 µM, the TGI [43] was over 100 µM and the TGI [44] was 43.7 µM. It also gave a TGI [45] of over 100 µM, a TGI [46] of over 100 µM and a TGI [47] of 72 µM. It also gave a TGI [64] of 58.3 µM and a TGI [65] of over 100 µM.

For C[N+]1(C)C/C(=C\c2ccncc2)C(=O)/C(=C/c2ccncc2)C1, the TGI [2] was over 100 µM, the TGI [3] was over 100 µM and the TGI [48] was over 100 µM. The TGI [66] was over 100 µM, the TGI [49] was over 100 µM and the TGI [5] was over 100 µM. For the same compound, the TGI [6] was over 100 µM, the TGI [67] was over 100 µM and the TGI [7] was over 100 µM. The TGI [8] was over 100 µM, the TGI [9] was over 100 µM and the TGI [53] was over 100 µM. For the same compound, the TGI [10] was over 100 µM, the TGI [11] was over 100 µM and the TGI [12] was over 100 µM. It also gave a TGI [14] of over 100 µM, a TGI [15] of over 100 µM and a TGI [16] of over 100 µM. For the same compound, the TGI [17] was over 100 µM, the TGI [57] was over 100 µM and the TGI [18] was over 100 µM. For the same compound, the TGI [19] was over 100 µM, the TGI [20] was over 100 µM and the TGI [21] was over 100 µM. The TGI [22] was over 100 µM, the TGI [61] was over 100 µM and the TGI [23] was over 100 µM. The TGI [24] was over 100 µM, the TGI [62] was over 100 µM and the TGI [25] was over 100 µM. It also gave a TGI [26] of over 100 µM, a TGI [27] of over 100 µM and a TGI [28] of 79.5 µM. For the same compound, the TGI [29] was over 100 µM, the TGI [30] was over 100 µM and the TGI [31] was over 100 µM. It also gave a TGI [32] of over 100 µM, a TGI [33] of over 100 µM and a TGI [34] of 84.7 µM. For the same compound, the TGI [35] was over 100 µM, the TGI [36] was over 100 µM and the TGI [37] was over 100 µM. The TGI [38] was over 100 µM, the TGI [39] was over 100 µM and the TGI [40] was over 100 µM. The TGI [41] was over 100 µM, the TGI [42] was over 100 µM and the TGI [43] was over 100 µM. It also gave a TGI [44] of 42 µM, a TGI [45] of over 100 µM and a TGI [46] of over 100 µM. The TGI [47] was over 100 µM and the TGI [65] was over 100 µM.
